Source: PubChem BioAssay AID248 (DTP/NCI, 2004)
Several values for one entry are separate records, joined by “and”; a condition that tells them apart may be missing. Equal values may be shown once. Inconclusive results and toxic doses are left out.

System: L1210 leukemia ip in BDF1 mice, survival T/C
Experiment: NCI In Vivo Anticancer Drug Screen. Data for tumor model L1210 Leukemia (intraperitoneal) in B6D2F1 (BDF1) mice
Details: endpoint: mean survival time, higher = longer survival
Outline: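 Antitumor effect is assessed in tumor-bearing animals. Survival in the compound arm is compared with a vehicle-dosed control arm and expressed as their quotient.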

[1] = dose: 100.0 mg/kg/injection, schedule: Q01DX001 (ip), vehicle: carboxymethylcellulose (CMC)
[2] = dose: 200.0 mg/kg/injection, schedule: Q01DX001 (ip), vehicle: carboxymethylcellulose (CMC)
[3] = dose: 400.0 mg/kg/injection, schedule: Q01DX001 (ip), vehicle: carboxymethylcellulose (CMC)
[4] = dose: 75.0 mg/kg/injection, schedule: Q01DX001 (ip), vehicle: saline
[5] = dose: 150.0 mg/kg/injection, schedule: Q01DX001 (ip), vehicle: saline
[6] = dose: 100.0 mg/kg/injection, schedule: Q04DX003 (ip), vehicle: saline with Tween-80
[7] = dose: 200.0 mg/kg/injection, schedule: Q04DX003 (ip), vehicle: saline with Tween-80
[8] = dose: 100.0 mg/kg/injection, schedule: Q04DX002 (ip), vehicle: Klucel (hydroxypropylcellulose) (HPC)
[9] = dose: 200.0 mg/kg/injection, schedule: Q04DX002 (ip), vehicle: Klucel (hydroxypropylcellulose) (HPC)
[10] = dose: 400.0 mg/kg/injection, schedule: Q04DX002 (ip), vehicle: Klucel (hydroxypropylcellulose) (HPC)
[11] = dose: 50.0 mg/kg/injection, schedule: Q01DX001 (ip), vehicle: saline
[12] = dose: 100.0 mg/kg/injection, schedule: Q01DX001 (ip), vehicle: saline
[13] = dose: 200.0 mg/kg/injection, schedule: Q01DX001 (ip), vehicle: saline
[14] = dose: 400.0 mg/kg/injection, schedule: Q01DX001 (ip), vehicle: saline
[15] = dose: 50.0 mg/kg/injection, schedule: Q04DX003 (ip), vehicle: acetone
[16] = dose: 100.0 mg/kg/injection, schedule: Q04DX003 (ip), vehicle: Klucel (hydroxypropylcellulose) (HPC)
[17] = dose: 200.0 mg/kg/injection, schedule: Q04DX003 (ip), vehicle: Klucel (hydroxypropylcellulose) (HPC)
[18] = dose: 400.0 mg/kg/injection, schedule: Q04DX003 (ip), vehicle: Klucel (hydroxypropylcellulose) (HPC)
[19] = dose: 100.0 mg/kg/injection, schedule: Q04DX002 (ip), vehicle: saline with Tween-80

In the case of `COC(=O)c1ccc(O)c(C(=O)OC)c1`, the T/C [1] is reported as 92 % of control, the T/C [2] is reported as 97 % of control and the T/C [3] is reported as 103 % of control.
With `Cc1cc(N=Nc2ccccc2C)ccc1N` the T/C (dose: 3.0 mg/kg/injection, schedule: Q01DX009 (ip), vehicle: DMSO) was 97 % of control, the T/C (dose: 6.0 mg/kg/injection, schedule: Q01DX009 (ip), vehicle: DMSO) was 90 % of control and the T/C (dose: 12.0 mg/kg/injection, schedule: Q01DX009 (ip), vehicle: DMSO) was 98 % of control. The T/C (dose: 12.5 mg/kg/injection, schedule: Q01DX009 (ip), vehicle: DMSO) was 95 % of control, the T/C (dose: 12.5 mg/kg/injection, schedule: Q04DX003 (ip), vehicle: DMSO) was 100 % of control and the T/C (dose: 25.0 mg/kg/injection, schedule: Q04DX003 (ip), vehicle: DMSO) was 98 % of control. For the same molecule, the T/C (dose: 50.0 mg/kg/injection, schedule: Q04DX003 (ip), vehicle: DMSO) was 96 % of control.
For `O=C1OC2C3C=CC(CC3)C2O1` (stereo not given), the T/C (dose: 7.5 mg/kg/injection, schedule: Q04DX002 (ip), vehicle: Klucel (hydroxypropylcellulose) (HPC)) was 105 % of control, the T/C (dose: 15.0 mg/kg/injection, schedule: Q01DX001 (ip), vehicle: carboxymethylcellulose (CMC)) was 101 % of control and the T/C (dose: 15.0 mg/kg/injection, schedule: Q04DX002 (ip), vehicle: Klucel (hydroxypropylcellulose) (HPC)) was 99 % of control. For the same molecule, the T/C (dose: 30.0 mg/kg/injection, schedule: Q01DX001 (ip), vehicle: carboxymethylcellulose (CMC)) was 114 % of control and the T/C (dose: 30.0 mg/kg/injection, schedule: Q04DX002 (ip), vehicle: Klucel (hydroxypropylcellulose) (HPC)) was 96 % of control.
For `OCCN(CCO)Cc1cc(Cl)c2cccnc2c1O`, the T/C [4] was 102 % of control and the T/C [5] was 104 % of control.
`COC1=NS(=O)(=O)C=C(c2ccccc2)O1` was tested, and the T/C (dose: 300.0 mg/kg/injection, schedule: Q04DX002 (ip), vehicle: Klucel (hydroxypropylcellulose) (HPC)) was 100 % of control.
`CN(CCO)Cc1ccc(Cl)cc1` was tested, and the T/C (dose: 150.0 mg/kg/injection, schedule: Q01DX015 (ip), vehicle: saline) was 91 % of control.
In the case of `CC(C)Oc1c(N(C)CCO)c2cc(Cl)ccc2oc1=O`, the T/C [6] is reported as 95 % of control and the T/C [7] is reported as 101 % of control.
With `CN(CCNC(=O)C1C(c2ccccc2)C1c1ccccc1)C(=O)C1C(c2ccccc2)C1c1ccccc1` (stereo not given) the T/C [8] was 95 % of control, the T/C [9] was 89 % of control and the T/C [10] was 89 % of control.
With `CN(CC(=O)NCCCCCCCCCCNC(=O)CN(C)C(=O)OCc1ccccc1)C(=O)OCc1ccccc1` the T/C (dose: 10.0 mg/kg/injection, schedule: Q01DX Z (ip), vehicle: saline) was 94 % of control, the T/C (dose: 30.0 mg/kg/injection, schedule: Q01DX Z (ip), vehicle: saline) was 88 % of control and the T/C (dose: 100.0 mg/kg/injection, schedule: Q01DX Z (ip), vehicle: saline) was 91 % of control. For the same molecule, the T/C (dose: 300.0 mg/kg/injection, schedule: Q01DX Z (ip), vehicle: saline) was 88 % of control.
`C=CCc1cccc(C2N(Cc3ccccc3OC)CCCN2Cc2ccccc2OC)c1O` was tested, and the T/C [11] was 103 % of control, the T/C [12] was 100 % of control and the T/C [13] was 97 % of control. The T/C [14] was 97 % of control.
`CCCCNCCOC(=O)c1ccc(N)cc1` was tested, and the T/C [4] was 106 % of control.
`CS(=O)(=O)c1ccccc1C(=O)O` was tested, and the T/C (dose: 50.0 mg/kg/injection, schedule: Q01DX009 (ip), vehicle: saline) was 93 % of control, the T/C [15] was 105 % of control and the T/C (dose: 100.0 mg/kg/injection, schedule: Q01DX001 (ip), vehicle: acetone) was 97 % of control. For the same molecule, the T/C (dose: 100.0 mg/kg/injection, schedule: Q01DX009 (ip), vehicle: saline) was 98 % of control, the T/C (dose: 100.0 mg/kg/injection, schedule: Q04DX003 (ip), vehicle: acetone) was 105 % of control and the T/C (dose: 200.0 mg/kg/injection, schedule: Q01DX001 (ip), vehicle: acetone) was 101 % of control. The T/C (dose: 200.0 mg/kg/injection, schedule: Q01DX009 (ip), vehicle: saline) was 98 % of control and the T/C (dose: 200.0 mg/kg/injection, schedule: Q04DX003 (ip), vehicle: acetone) was 103 % of control.
In the case of `O=[N+]([O-])c1cccc(S/N=C/c2ccccc2O)c1`, the T/C [8] is reported as 102 % of control, the T/C [9] is reported as 97 % of control and the T/C [10] is reported as 108 % of control.
With `COc1ccc(C2=NNC(=O)C2(C)Br)cc1` (stereo not given) the T/C [12] was 105 % of control, the T/C [13] was 91 % of control and the T/C [14] was 100 % of control.
For `CN(C)c1ccc(C=C2c3ccccc3-c3ccccc32)cc1`, the T/C [16] was 97 % of control, the T/C [17] was 96 % of control and the T/C [18] was 94 % of control.
With `O=[N+]([O-])c1ccc(Cl)cc1/C=N/Nc1c2ccccc2nc2ccccc12` the T/C [12] was 92 % of control.
With `CC(CO)(CO)NC(=O)c1ccc([N+](=O)[O-])cc1` the T/C [1] was 94 % of control, the T/C [2] was 100 % of control and the T/C [3] was 94 % of control.
`CCN(CC)CCCCN(C)c1ccccc1` was tested, and the T/C (dose: 12.5 mg/kg/injection, schedule: Q01DX009 (ip), vehicle: saline with Tween-80) was 89 % of control, the T/C (dose: 12.5 mg/kg/injection, schedule: Q04DX003 (ip), vehicle: acetone) was 93 % of control and the T/C (dose: 25.0 mg/kg/injection, schedule: Q01DX009 (ip), vehicle: saline with Tween-80) was 97 % of control. For the same molecule, the T/C (dose: 25.0 mg/kg/injection, schedule: Q04DX003 (ip), vehicle: acetone) was 89 % of control, the T/C (dose: 50.0 mg/kg/injection, schedule: Q01DX009 (ip), vehicle: saline with Tween-80) was 97 % of control and the T/C [15] was 98 % of control.
In the case of `CC1CN1P(=O)(N1CC1C)N1CC1C` (stereo not given), the T/C (dose: 13.3 mg/kg/injection, schedule: Q01DX009 (ip), vehicle: saline) is reported as 124 % of control, the T/C (dose: 19.0 mg/kg/injection, schedule: Q01DX009 (ip), vehicle: saline) is reported as 124 % of control and the T/C (dose: 66.0 mg/kg/injection, schedule: Q01DX001 (ip), vehicle: saline) is reported as 163 % of control. For the same molecule, the T/C (dose: 99.0 mg/kg/injection, schedule: Q01DX009 (ip), vehicle: saline) was 88 % of control and the T/C [5] was 159 % of control.
For `NC(=O)c1cc2ccccc2[n+](Cc2ccc(F)cc2)c1`, the T/C [4] was 107 % of control.
For `CN(C(=O)c1ccc(C(=N)N)cc1)c1ccccc1`, the T/C (dose: 100.0 mg/kg/injection, schedule: Q01DX001 (ip), vehicle: saline with Tween-80) was 100 % of control and the T/C (dose: 200.0 mg/kg/injection, schedule: Q01DX001 (ip), vehicle: saline with Tween-80) was 100 % of control.
With `O=C1C=C(Cl)C(=O)c2ccccc21` the T/C (dose: 9.38 mg/kg/injection, schedule: Q01DX001 (ip), vehicle: steriod suspending solution) was 91 % of control.
In the case of `C#CP(CCCC)CCCC`, the T/C (dose: 25.0 mg/kg/injection, schedule: Q04DX002 (ip), vehicle: saline with Tween-80) is reported as 97 % of control, the T/C (dose: 50.0 mg/kg/injection, schedule: Q04DX002 (ip), vehicle: saline with Tween-80) is reported as 91 % of control and the T/C [19] is reported as 95 % of control and 102 % of control.
In the case of `Cc1onc(-c2ccccc2Cl)c1C(=O)NCC(=O)O`, the T/C [19] is reported as 104 % of control, the T/C (dose: 200.0 mg/kg/injection, schedule: Q04DX002 (ip), vehicle: saline with Tween-80) is reported as 100 % of control and the T/C (dose: 400.0 mg/kg/injection, schedule: Q04DX002 (ip), vehicle: saline with Tween-80) is reported as 100 % of control.
In the case of `NC(=S)NN=C1CCCCCCCCC1`, the T/C [12] is reported as 102 % of control.
`CC(=O)N(N=O)c1cc(Cl)ccc1Cl` was tested, and the T/C [11] was 113 % of control, the T/C [12] was 110 % of control and the T/C [13] was 101 % of control. The T/C [14] was 107 % of control.
With `CCOC(=O)C1=CCC(n2cc(F)c(=O)[nH]c2=O)O1` (stereo not given) the T/C [6] was 98 % of control, the T/C [7] was 102 % of control and the T/C (dose: 400.0 mg/kg/injection, schedule: Q04DX003 (ip), vehicle: saline with Tween-80) was 98 % of control.
In the case of `CCc1ccccc1NC(=O)Nc1ccc(Cl)c(Cl)c1`, the T/C (dose: 100.0 mg/kg/injection, schedule: Q01DX009 (ip), vehicle: Klucel (hydroxypropylcellulose) (HPC)) is reported as 88 % of control, the T/C [16] is reported as 98 % of control and the T/C (dose: 200.0 mg/kg/injection, schedule: Q01DX009 (ip), vehicle: Klucel (hydroxypropylcellulose) (HPC)) is reported as 96 % of control. The T/C [17] was 93 % of control, the T/C (dose: 400.0 mg/kg/injection, schedule: Q01DX009 (ip), vehicle: Klucel (hydroxypropylcellulose) (HPC)) was 88 % of control and the T/C [18] was 104 % of control.
For `O=S(=O)(/C(=C\c1ccccc1)c1ccccc1)C(Cl)c1ccccc1` (stereo not given), the T/C [12] was 96 % of control, the T/C [13] was 110 % of control and the T/C [14] was 95 % of control.
With `CC(C)C(=O)Oc1ccc(-c2ccccc2)cc1` the T/C [8] was 93 % of control, the T/C [9] was 100 % of control and the T/C [10] was 100 % of control.
